For assay [1], the target named is Hemagglutinin (Influenza A virus) (UniProt K7N5L2). The assay can be described thus: Inhibition of Influenza virus A/H3N2/NIB/44/90M Hemagglutinin after 2 hr by horseradish peroxidase assay relative to Neu5Aalpha.
Assay [2] addresses Hemagglutinin (Influenza A virus, UniProt K7N5L2). Put plainly: Binding affinity to Influenza virus A Hemagglutinin.

For orientation: IC50 means the point on the concentration scale where inhibition reaches its midpoint. High values mean weaker potency in that assay, low ones greater potency in that assay.

With `CC(=O)N[C@H]1[C@H]([C@H](O)[C@H](O)CO)OC(OCc2ccc(NC(=O)CNC(=O)CCCCC(=O)NCC(=O)NCC(=O)NCC(=O)NCC(=O)NCC(=O)NCC(=O)NCC(=O)NCC(CNC(=O)CNC(=O)CNC(=O)CNC(=O)CNC(=O)CNC(=O)CNC(=O)CNC(=O)CCCCC(=O)NCC(=O)Nc3ccc(COC4(C(=O)O)C[C@H](O)[C@@H](NC(C)=O)[C@H]([C@H](O)[C@H](O)CO)O4)cc3)(CNC(=O)CNC(=O)CNC(=O)CNC(=O)CNC(=O)CNC(=O)CNC(=O)CNC(=O)CCCCC(=O)NCC(=O)Nc3ccc(COC4(C(=O)O)C[C@H](O)[C@@H](NC(C)=O)[C@H]([C@H](O)[C@H](O)CO)O4)cc3)CNC(=O)CNC(=O)CNC(=O)CNC(=O)CNC(=O)CNC(=O)CNC(=O)CNC(=O)CCCCC(=O)NCC(=O)Nc3ccc(COC4(C(=O)O)C[C@H](O)[C@@H](NC(C)=O)[C@H]([C@H](O)[C@H](O)CO)O4)cc3)cc2)(C(=O)O)C[C@@H]1O` (some centres not stated), in assay [1], the Ratio turned out to be 1000.

In assay [2], `CC(=O)N[C@H]1[C@H]([C@H](O)[C@H](O)CO)OC(OCCCCCCC(=O)NCc2cccc3ccccc23)(C(=O)O)C[C@@H]1OC(=O)CNS(=O)(=O)c1cccc2c(N(C)C)cccc12` (some centres not stated) gave an IC50 of 3 mM.

The values above are taken from ChEMBL document CHEMBL3044543, “Synthetic sialic-acid-containing polyvalent antiviral inhibitors” (Med Chem Res, 2009).
